Where “and” joins values, the source holds several entries; their conditions need not be identical. Identical values can stand only once. Counter-ions that a name gives are not always drawn. Like-named read-outs stand apart in the source and are kept apart here.
What was measured:
[1] = tested on: melanoma cell line B16/F10 tumors
[2] = tested on: melanoma cell line B16/F10; assay: Drug sensitivity in an in vitro tumor model; assay type: cell-based; settings: vs cisplatin and 5-FU, even at 0.1 μg/mL
Excerpt: The B16/F10 cells were cultivated in the presence of different concentrations of DOX, cisplatin and 5-FU.

Row | Structure (SMILES) | Number of Mice Survived, 28 days ([1]; mouse, in vivo) | early death after injection ([1]; mouse, in vivo) | Number of Mice Survived, 42 days ([1]; mouse, in vivo, hydrochloride) | Tumor Volume After Tumor Injection, 28 days ([1]; treatment injected Day 3 (3d)) | Tumor Volume After Tumor Injection, 42 days ([1]; treatment injected Day 3 (3d)) | Tumor Volume After Tumor Injection, 28 days ([1]; treatment injected Day 7 (7d)) | Tumor Volume After Tumor Injection, 42 days ([1]; treatment injected Day 7 (7d)) | inhibitory effect on the cell culture [2]
1 | COc1cccc2c1C(=O)c1c(O)c3c(c(O)c1C2=O)C[C@@](O)(C(=O)CO)C[C@@H]3O[C@H]1C[C@H](N)[C@H](O)[C@H](C)O1 [Bolus Dox, doxorubicin hydrochloride] | 8 | did not produce early death | 5 and 3 | 1218.9 ± 304.1 mm^3 | 3942.5 ± 1818 mm^3 | 1661.2 ± 301.8 mm^3 | 4394.3 ± 741.3 mm^3 | 
2 | COc1cccc2c1C(=O)c1c(O)c3c(c(O)c1C2=O)C[C@@](O)(C(=O)CO)C[C@@H]3O[C@H]1C[C@H](N)[C@H](O)[C@H](C)O1 [DOX, doxorubicin] |  |  |  |  |  |  |  | strongest inhibitory effect

— patent publication US6800672B2, “Biodegradable compositions comprising poly(cycloaliphatic phosphoester) compounds, articles, and methods for using the same” (Guilford Pharmaceuticals, Inc., priority 1997, dated 2004)
